The target of assay [1] is T1, B2 bradykinin receptor (Homo sapiens, UniProt P30411). Further: in other assays of this panel Not Active means under 50% inhibition at 10 µM.
T1 sequence (P30411 whole entry): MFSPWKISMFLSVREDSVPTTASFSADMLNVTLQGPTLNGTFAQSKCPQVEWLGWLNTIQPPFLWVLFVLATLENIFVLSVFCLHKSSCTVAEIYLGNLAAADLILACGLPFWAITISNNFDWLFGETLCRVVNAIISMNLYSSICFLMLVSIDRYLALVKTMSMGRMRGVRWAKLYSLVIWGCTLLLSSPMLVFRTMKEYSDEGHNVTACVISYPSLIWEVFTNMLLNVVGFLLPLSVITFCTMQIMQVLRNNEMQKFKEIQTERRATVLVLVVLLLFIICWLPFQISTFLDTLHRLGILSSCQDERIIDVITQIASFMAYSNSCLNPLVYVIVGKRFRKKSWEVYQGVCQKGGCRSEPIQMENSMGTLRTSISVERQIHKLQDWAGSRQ
The class given is cell membranes, Membrane. Conditions: chem-1.

The target in assay [2] is T2, Angiotensin-converting enzyme (Oryctolagus cuniculus, UniProt P12822).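 Further: enzymatic inhibition of angiotensin-converting enzyme measured with FAPGG as the substrate; in other assays of this panel Not Active means under 50% inhibition at 10 µM.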
T2 sequence (P12822 whole entry): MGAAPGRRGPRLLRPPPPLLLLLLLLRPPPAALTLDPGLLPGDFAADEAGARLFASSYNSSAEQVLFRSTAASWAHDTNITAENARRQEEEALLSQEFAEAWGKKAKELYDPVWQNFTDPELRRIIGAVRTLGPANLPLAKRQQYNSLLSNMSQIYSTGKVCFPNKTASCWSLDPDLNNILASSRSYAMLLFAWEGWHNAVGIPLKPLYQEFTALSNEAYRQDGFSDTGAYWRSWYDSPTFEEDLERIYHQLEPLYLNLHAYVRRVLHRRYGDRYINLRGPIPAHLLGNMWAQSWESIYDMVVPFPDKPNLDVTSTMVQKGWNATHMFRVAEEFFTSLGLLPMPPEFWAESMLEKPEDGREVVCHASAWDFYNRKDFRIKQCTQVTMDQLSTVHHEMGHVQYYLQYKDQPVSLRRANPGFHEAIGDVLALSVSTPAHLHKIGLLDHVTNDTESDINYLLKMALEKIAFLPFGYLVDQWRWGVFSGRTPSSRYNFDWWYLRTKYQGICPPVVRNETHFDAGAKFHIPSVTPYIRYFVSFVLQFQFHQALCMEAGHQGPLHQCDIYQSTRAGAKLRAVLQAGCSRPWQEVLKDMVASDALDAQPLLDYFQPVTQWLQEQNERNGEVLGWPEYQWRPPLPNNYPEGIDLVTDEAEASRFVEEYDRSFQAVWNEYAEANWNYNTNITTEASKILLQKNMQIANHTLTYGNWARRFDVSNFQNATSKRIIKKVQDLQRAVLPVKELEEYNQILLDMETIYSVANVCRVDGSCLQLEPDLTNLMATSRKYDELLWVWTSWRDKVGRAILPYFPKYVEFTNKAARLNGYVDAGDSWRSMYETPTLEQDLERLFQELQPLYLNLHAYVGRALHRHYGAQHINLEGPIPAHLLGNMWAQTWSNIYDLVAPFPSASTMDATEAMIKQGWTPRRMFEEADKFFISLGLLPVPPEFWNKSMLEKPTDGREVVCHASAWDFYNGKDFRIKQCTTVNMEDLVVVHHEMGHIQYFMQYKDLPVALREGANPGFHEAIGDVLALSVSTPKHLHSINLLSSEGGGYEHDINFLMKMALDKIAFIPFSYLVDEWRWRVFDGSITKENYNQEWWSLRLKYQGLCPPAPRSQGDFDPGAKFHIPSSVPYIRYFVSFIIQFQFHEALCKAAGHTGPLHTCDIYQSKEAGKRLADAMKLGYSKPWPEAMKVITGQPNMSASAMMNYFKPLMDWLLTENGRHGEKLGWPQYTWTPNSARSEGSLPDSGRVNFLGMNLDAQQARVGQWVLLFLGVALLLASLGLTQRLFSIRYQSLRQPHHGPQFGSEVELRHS
The class given is tissue-based, Lung.

Assay [3] deals with C-C chemokine receptor type 2 (Homo sapiens, UniProt P41597). The class given is cell membranes, Membrane. To be noted: cho-k1.
Sequence of C-C chemokine receptor type 2 (P41597 whole entry): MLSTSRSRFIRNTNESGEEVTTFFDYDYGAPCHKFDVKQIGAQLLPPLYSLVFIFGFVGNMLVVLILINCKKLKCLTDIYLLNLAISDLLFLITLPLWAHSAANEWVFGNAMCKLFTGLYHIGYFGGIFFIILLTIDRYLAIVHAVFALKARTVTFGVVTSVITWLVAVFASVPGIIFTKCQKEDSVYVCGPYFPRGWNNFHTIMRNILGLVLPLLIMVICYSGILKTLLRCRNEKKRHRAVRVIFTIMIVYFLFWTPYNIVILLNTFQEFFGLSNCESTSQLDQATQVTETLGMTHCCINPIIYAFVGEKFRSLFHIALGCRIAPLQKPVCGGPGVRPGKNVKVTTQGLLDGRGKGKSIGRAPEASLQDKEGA
Assay [4] addresses 5-hydroxytryptamine receptor 4 (Cavia porcellus, UniProt O70528). The class given is cell membranes, Dunkin-Hartley, Striatum, Membrane.
Assay [5] deals with T3, C-X-C chemokine receptor type 1 (Homo sapiens, UniProt P25024).
T3 sequence (P25024 whole entry): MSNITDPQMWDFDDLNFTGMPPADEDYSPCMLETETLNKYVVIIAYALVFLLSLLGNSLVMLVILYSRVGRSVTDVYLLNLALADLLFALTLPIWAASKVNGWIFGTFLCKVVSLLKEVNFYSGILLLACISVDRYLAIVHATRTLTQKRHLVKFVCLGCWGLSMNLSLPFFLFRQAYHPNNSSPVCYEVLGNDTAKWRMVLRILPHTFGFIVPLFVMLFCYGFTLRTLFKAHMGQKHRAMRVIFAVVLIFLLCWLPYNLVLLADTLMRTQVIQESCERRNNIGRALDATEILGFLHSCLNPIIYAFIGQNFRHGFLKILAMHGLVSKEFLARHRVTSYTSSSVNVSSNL

Assay [6] addresses D(3) dopamine receptor (Homo sapiens, UniProt P35462). The experiment in a line: DRUGMATRIX: Dopamine D3 radioligand binding (ligand: [3H] Spiperone). The class given is cell membranes, CHO, Membrane.
For assay [7], the target named is Insulin receptor (Rattus norvegicus, UniProt P15127). The class given is cell membranes, Wistar, Liver, Membrane. Further: in other assays of this panel Not Active means under 50% inhibition at 10 µM.
Sequence of Insulin receptor (P15127 27-759 limits assumed): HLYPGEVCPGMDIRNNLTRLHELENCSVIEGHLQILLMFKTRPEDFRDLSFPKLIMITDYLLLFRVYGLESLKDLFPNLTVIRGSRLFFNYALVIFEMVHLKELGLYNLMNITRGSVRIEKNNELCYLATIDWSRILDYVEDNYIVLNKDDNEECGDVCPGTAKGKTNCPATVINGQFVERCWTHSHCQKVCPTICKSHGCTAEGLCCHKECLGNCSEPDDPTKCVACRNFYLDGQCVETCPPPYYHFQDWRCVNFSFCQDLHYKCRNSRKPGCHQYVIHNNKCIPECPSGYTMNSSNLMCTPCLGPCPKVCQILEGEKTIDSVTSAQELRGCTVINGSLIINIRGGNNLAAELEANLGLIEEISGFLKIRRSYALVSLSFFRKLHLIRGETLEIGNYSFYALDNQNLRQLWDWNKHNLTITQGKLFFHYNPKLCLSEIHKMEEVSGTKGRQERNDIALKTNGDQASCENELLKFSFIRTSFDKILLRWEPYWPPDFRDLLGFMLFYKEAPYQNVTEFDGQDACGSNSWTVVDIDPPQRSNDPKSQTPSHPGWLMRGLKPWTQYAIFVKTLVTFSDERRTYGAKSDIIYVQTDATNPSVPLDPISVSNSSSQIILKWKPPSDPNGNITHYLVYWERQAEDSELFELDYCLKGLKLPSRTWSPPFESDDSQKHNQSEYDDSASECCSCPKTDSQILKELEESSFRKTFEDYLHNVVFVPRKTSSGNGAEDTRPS
Sequence of Insulin receptor (P15127 764-1383 limits assumed): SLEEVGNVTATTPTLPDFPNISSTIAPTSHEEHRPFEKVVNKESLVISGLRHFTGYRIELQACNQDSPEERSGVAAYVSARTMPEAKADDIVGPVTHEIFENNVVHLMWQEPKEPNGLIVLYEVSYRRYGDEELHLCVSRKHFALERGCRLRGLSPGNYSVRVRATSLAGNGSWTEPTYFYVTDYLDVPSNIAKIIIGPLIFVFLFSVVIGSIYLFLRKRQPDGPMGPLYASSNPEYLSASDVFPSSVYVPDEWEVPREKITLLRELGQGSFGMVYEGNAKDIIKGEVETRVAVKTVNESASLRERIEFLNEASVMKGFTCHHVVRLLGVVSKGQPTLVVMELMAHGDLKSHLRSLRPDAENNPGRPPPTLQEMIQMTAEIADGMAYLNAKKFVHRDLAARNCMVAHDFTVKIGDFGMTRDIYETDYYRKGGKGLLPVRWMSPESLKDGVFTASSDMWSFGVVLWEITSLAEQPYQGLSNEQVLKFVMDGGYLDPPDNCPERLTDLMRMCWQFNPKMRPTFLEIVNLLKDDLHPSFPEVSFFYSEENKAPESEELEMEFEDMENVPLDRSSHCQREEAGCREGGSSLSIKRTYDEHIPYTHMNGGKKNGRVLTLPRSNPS

Sequence of D(3) dopamine receptor (P35462 whole entry): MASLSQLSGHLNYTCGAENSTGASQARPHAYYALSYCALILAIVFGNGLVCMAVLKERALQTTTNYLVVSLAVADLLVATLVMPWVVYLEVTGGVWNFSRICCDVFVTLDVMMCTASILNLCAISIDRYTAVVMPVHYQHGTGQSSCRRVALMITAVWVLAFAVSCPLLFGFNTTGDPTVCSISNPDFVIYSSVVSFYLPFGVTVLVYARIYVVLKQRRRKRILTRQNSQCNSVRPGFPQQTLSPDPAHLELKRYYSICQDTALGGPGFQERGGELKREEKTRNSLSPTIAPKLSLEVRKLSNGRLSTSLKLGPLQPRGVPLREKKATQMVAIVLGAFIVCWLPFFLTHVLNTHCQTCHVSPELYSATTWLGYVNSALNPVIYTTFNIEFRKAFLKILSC
Sequence of 5-hydroxytryptamine receptor 4 (O70528 whole entry): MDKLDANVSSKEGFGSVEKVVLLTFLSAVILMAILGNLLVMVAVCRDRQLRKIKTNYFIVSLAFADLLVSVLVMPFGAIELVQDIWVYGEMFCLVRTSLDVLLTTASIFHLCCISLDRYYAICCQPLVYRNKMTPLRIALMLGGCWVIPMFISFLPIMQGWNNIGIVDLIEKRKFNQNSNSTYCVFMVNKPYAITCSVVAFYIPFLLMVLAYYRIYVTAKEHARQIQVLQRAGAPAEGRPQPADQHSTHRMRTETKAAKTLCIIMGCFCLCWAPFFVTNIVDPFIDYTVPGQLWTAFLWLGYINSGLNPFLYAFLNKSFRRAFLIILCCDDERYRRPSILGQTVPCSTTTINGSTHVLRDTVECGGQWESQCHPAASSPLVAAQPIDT

As a reminder, the IC50 is the midpoint of a concentration-inhibition curve. Take `C[N+](C)(C)CCOC(=O)CCC(=O)OCC[N+](C)(C)C.[Cl-].[Cl-]` [SUCCINYLCHOLINE CHLORIDE]: the concentration for half-maximal inhibition (IC50) entry in assay [1], in assay [2], in assay [3], in assay [4], in assay [5] and in assay [6] (cho) was “Not Active” in each case. The IC50 result in assay [7] is listed as “Not Active”.
For `Nc1ccc(S(=O)(=O)NC(=O)c2ccccc2)cc1` [SULFABENZAMIDE], the IC50 result in assay [1], in assay [2], in assay [3], in assay [4], in assay [5] and in assay [6] (cho) was “Not Active” throughout. Moreover, the concentration for half-maximal inhibition (IC50) result in assay [7] is “Not Active”.
Broadly, the Ki is the dissociation constant of the complex between target and ligand, obtained from inhibition or displacement. Turning to `CCCCCCCCNC(C)C(O)c1ccc(SC(C)C)cc1` (stereo not given) [SULOCTIDIL], the IC50 entry in assay [1] was “Not Active”; in assay [2] it was “Not Active”; in assay [3], “Not Active”; in assay [4], “Not Active”; in assay [5], “Not Active”; in assay [6] (read-out: IC50) it was 2.1 µM. Moreover, the IC50 entry in assay [7] was “Not Active”. For the same compound, the inhibitory constant (Ki) in assay [6] (read-out: Ki) stood at 0.715 µM.
Turning to `O=c1[nH]c(=O)n(C2CCCO2)cc1F` (stereo not given) [TEGAFUR], the IC50 result in assay [1], in assay [2], in assay [3], in assay [4], in assay [5] and in assay [6] (cho) was “Not Active” throughout. Moreover, the IC50 entry in assay [7] is recorded as “Not Active”.
For `CC(=N)S` [THIOACETAMIDE], the IC50 entry in assay [1], in assay [2], in assay [3], in assay [4], in assay [5] and in assay [6] (cho) was “Not Active” in each case. Also, in assay [7], the 50% inhibitory concentration (IC50) entry is listed as “Not Active”.
`Cc1ccc(C(=O)c2ccc(CC(=O)O)n2C)cc1` [TOLMETIN]: the IC50 result in assay [1], in assay [2], in assay [3], in assay [4], in assay [5] and in assay [6] (cho) was “Not Active” throughout. The IC50 entry in assay [7] is given as “Not Active”.
As for `CC(=O)OCC(COC(C)=O)OC(C)=O` [TRIACETIN], the concentration for half-maximal inhibition (IC50) entry in assay [1], in assay [2], in assay [3], in assay [4], in assay [5] and in assay [6] (cho) was “Not Active” in each case. For the same compound, the IC50 result in assay [7] is “Not Active”.
For the compound `CN1CCN(CCCN2c3ccccc3Sc3ccc(C(F)(F)F)cc32)CC1` [TRIFLUOPERAZINE], the half-inhibitory concentration (IC50) entry in assay [1], in assay [2], in assay [3], in assay [4], in assay [5] and in assay [6] (cho) was “Not Active” throughout. Moreover, the 50% inhibitory concentration (IC50) entry in assay [7] is “Not Active”.
On to TRANSPLATIN, for which the IC50 result was “Not Active” in assay [1]; “Not Active” in assay [2]; “Not Active” in assay [3]; “Not Active” in assay [4]; “Not Active” in assay [5]; 3.32 µM in assay [6] (cho, read-out: IC50). The IC50 entry in assay [7] is “Not Active”. For the same compound, the inhibition constant Ki result was “Not Active” in assay [1]; “Not Active” in assay [2]; “Not Active” in assay [3]; “Not Active” in assay [4]; “Not Active” in assay [5]; 1.13 µM in assay [6] (cho, read-out: Ki). Further, the inhibition constant Ki result in assay [7] is “Not Active”.
For the compound ZIRCONIUM(IV) CHLORIDE, the concentration for half-maximal inhibition (IC50) entry in assay [1], in assay [2], in assay [3], in assay [4], in assay [5] and in assay [6] (cho) was “Not Active” in each case. Moreover, in assay [7], the IC50 entry is recorded as “Not Active”. In addition, the inhibition constant Ki result in assay [1], in assay [2], in assay [3], in assay [4], in assay [5] and in assay [6] (cho) was “Not Active” each time. For the same compound, the inhibitory constant (Ki) entry in assay [7] is recorded as “Not Active”.
